Experimental data reported in patent publication US8641948B2, “Method of making solid dispersions of highly crystalline therapeutic compounds” (Novartis AG, priority 2006, dated 2014).

Test: Stability of the crystalline therapeutic compound (heat, light, oxidation)
Format: physicochemical
Excerpt: An example of a poorly water soluble therapeutic compound appropriate for the present invention is midostaurin which is a protein Kinase C inhibitor.

stability to light and oxidation: light-sensitive and oxidizes
thermal stability (at melting point of about 260° C.): decomposes upon melting
SMILES: CO[C@@H]1[C@H](N(C)C(=O)c2ccccc2)C[C@H]2O[C@]1(C)n1c3ccccc3c3c4c(c5c6ccccc6n2c5c31)C(=O)NC4 [midostaurin]
